Assay results reported in PubChem BioAssay AID504342 (Broad Institute, 2011).
Calls of active or inactive are those of the source.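 Rule for the calls: active = fitted curve reaches 10% of the positive control caspase activation at or below the top valid tested dose; inactive = signal shifts the opposite way, plus the rest.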

system: MEF Flag-A1-IRES-BIM, caspase-Glo luminescence, 3 h; test: caspase activation in Flag-A1-IRES-BIM MEFs, dose response, orthogonal assay for A1 inhibitor project, cell-based, MEF, plate reader, dry powder, set 2 (AID 504342); details: not given

| Structure (SMILES) | AC10 |
| --- | --- |
| Cn1c(=O)c([N+](=O)[O-])c(-n2cnc3ccccc32)c2ccccc21 | 15.1 µM |
| Cn1c(=O)c([N+](=O)[O-])c(Cl)c2ccccc21 | 1.11 µM |
| Cn1c(=O)c([N+](=O)[O-])c(Oc2ccccc2)c2ccccc21 | > 35 µM (inactive) |
| Cc1ccc(Sc2c([N+](=O)[O-])c(=O)n(C)c3ccccc23)cc1 | 5.09 µM |
| Cc1ccc(Sc2c([N+](=O)[O-])cnc3ccccc23)cc1 | > 16 µM (inactive) |

system: not listed separately; test: as above; details: MEF Flag-A1-IRES-BIM, caspase-Glo luminescence, 3 h; at 35 µM (top of the series)

| Structure (SMILES) | caspase activation |
| --- | --- |
| O=c1oc2ccccc2c(Cl)c1[N+](=O)[O-] | -5.93% (inactive) |
| Cc1ccc(Sc2cc(=O)n(C)c3ccccc23)cc1 | -6.4% (inactive) |
| CCOC(=O)N1CCN(c2c([N+](=O)[O-])c(=O)n(C)c3ccccc23)CC1 | -0.543% (inactive) |
| Cn1c(=O)c([N+](=O)[O-])c(Nc2ccc(Cl)cc2)c2ccccc21 | -0.882% (inactive) |
| O=c1oc2ccccc2c(Sc2ccccc2)c1[N+](=O)[O-] | -6.2% (inactive) |
| Cc1ccc(Sc2c([N+](=O)[O-])c(=O)oc3ccccc23)cc1 | -2.87% (inactive) |
| O=C(Oc1cccc(/C=N/Nc2nc(Nc3ccccc3)nc(N3CCOCC3)n2)c1)c1ccco1 | 2.95% (inactive) |
| Cc1ccc(Nc2c([N+](=O)[O-])c(=O)oc3ccccc23)cc1 | 0.875% (inactive) |
| CCSc1c([N+](=O)[O-])c(=O)oc2ccccc12 | -1.44% (inactive) |
| C/C1=C/C(=O)O[C@@H]2C[C@@H](CC[C@H](C)/C=C\CC1)O[C@@](O)(C1CSC(=O)N1)C2 (stereo partly specified) | 2.78% (inactive) |
| CN1C(=O)C(C)(C)N(Cc2ccccc2)c2ccccc21 | 1.13% (inactive) |
| O=c1oc2ccccc2c(N2CCCCC2)c1[N+](=O)[O-] | -2.6% (inactive) |
| O=[N+]([O-])c1cnc2ccccc2c1Sc1ccccc1 | -1.68% (inactive) |
| CCOCCCNc1c([N+](=O)[O-])c(=O)n(C)c2ccccc12 | 1.28% (inactive) |
| O=c1oc2ccccc2c(Nc2cc(Cl)cc(Cl)c2)c1[N+](=O)[O-] | -0.897% (inactive) |
| Cc1ccc(Nc2c([N+](=O)[O-])c(=O)n(C)c3ccccc23)cc1 | -0.435% (inactive) |
